In paper PMC5996281, “Salinity Tolerance of Two Potato Cultivars (Solanum tuberosum) Correlates With Differences in Vacuolar Transport Activity” (Frontiers in Plant Science, 2018):

Key:
[1] = tested on: T1, V-H^+-ATPase (cv. Desiree); assay: ACMA fluorescence quench, initial rate of H+ pumping in tonoplast vesicles; assay type: biochemical, Solanum tuberosum; settings: 10 mM Mops-TRIS pH 7.0, 5 mM MgCl2, 100 mM KCl; vesicles from control plants (0 mM NaCl)
T1 construct: gene VHA-A; subunit A 69 kDa on blot; with V-type proton ATPase 16 kDa proteolipid subunit; V-type proton ATPase subunit a

[2] = tested on: T2, V-H^+-ATPase (cv. Mozart); assay: as above; assay type: biochemical, Solanum tuberosum; settings: 10 mM Mops-TRIS pH 7.0, 5 mM MgCl2, 100 mM KCl; vesicles from control plants (0 mM NaCl)
T2 construct: gene VHA-A; subunit A 69 kDa on blot; with V-type proton ATPase 16 kDa proteolipid subunit; V-type proton ATPase subunit a

V-H^+-PPase (cv. Mozart) = tested on: T3, V-H^+-PPase (cv. Mozart); settings: 10 mM Mops-TRIS pH 7.0, 5 mM MgCl2, 100 mM KCl; vesicles from control plants (0 mM NaCl)
T3 construct: gene StVP1

[3] = tested on: T4, V-H^+-PPase (cv. Desiree); settings: 10 mM Mops-TRIS pH 7.0, 5 mM MgCl2, 100 mM KCl; vesicles from control plants (0 mM NaCl)
T4 construct: gene StVP1

V-H^+-ATPase = molecular target: T5, V-H^+-ATPase; assay: ACMA fluorescence quench, ATP-driven H+ pumping in tonoplast vesicles; assay type: biochemical, Solanum tuberosum; settings: 1 mM Mg ATP, 10 mM Mops-TRIS pH 7.0, 5 mM MgCl2, 100 mM KCl; inhibition; cultivar not told
T5 construct: gene VHA-c; native V1Vo complex in tonoplast-enriched leaf vesicles; with V-type proton ATPase catalytic subunit A; V-type proton ATPase subunit B

Structure (SMILES): Nc1ncnc2c1ncn2[C@@H]1O[C@H](COP(=O)(O)OP(=O)(O)OP(=O)(O)O)[C@@H](O)[C@H]1O [ATP]
- Km [1]: 81 µM
- Km [2]: 28 µM

Structure (SMILES): O=P(O)(O)OP(=O)(O)O [PPi]
- Km (V-H^+-PPase (cv. Mozart)): 9.6 ± 0.8 µM
- Km [3]: 7.3 ± 1.1 µM

Structure (SMILES): CO/C1=C\C(C)=C\[C@@H](C)[C@@H](O)[C@@H](C)C/C(C)=C/C=C/[C@H](OC)[C@@H]([C@@H](C)[C@@H](O)[C@H](C)[C@@]2(O)C[C@@H](O)[C@H](C)[C@@H](C(C)C)O2)OC1=O [bafilomycin]
- EC50 (V-H^+-ATPase): 0.2 nM
